Read-outs that look alike come from different tables or passages of the source. Numbered stars: 1 amine (or outer) side, 2 acyl side, 3 side chain; on linkers, the order of the positions; unused ones are H or OH. Bridge positions count the residues as written; N and C are the ends. Square brackets hold non-standard residues; d marks the D form. Peptide text beside a SMILES is read from it. * marks the point of attachment. C20 diacid = O=C(O)CCCCCCCCCCCCCCCCCCC(=O)*; γGlu = O=C(O)[C@H](CCC(=O)[*:2])N[*:1]; NMeI = CC[C@H](C)[C@H](NC)C(=O)O; Sar = CNCC(=O)O
Columns and labels:
[1] = target: T1, human calcitonin receptor (hCTR2) (Homo sapiens, UniProt P30988); experiment: hCTR2 assay: induction of cAMP (AlphaScreen cAMP Assay kit) in COS7 cells expressing hCTR2; type: cell-based
T1 construct: expressed in transfected cells
T1 sequence (P30988 25-474): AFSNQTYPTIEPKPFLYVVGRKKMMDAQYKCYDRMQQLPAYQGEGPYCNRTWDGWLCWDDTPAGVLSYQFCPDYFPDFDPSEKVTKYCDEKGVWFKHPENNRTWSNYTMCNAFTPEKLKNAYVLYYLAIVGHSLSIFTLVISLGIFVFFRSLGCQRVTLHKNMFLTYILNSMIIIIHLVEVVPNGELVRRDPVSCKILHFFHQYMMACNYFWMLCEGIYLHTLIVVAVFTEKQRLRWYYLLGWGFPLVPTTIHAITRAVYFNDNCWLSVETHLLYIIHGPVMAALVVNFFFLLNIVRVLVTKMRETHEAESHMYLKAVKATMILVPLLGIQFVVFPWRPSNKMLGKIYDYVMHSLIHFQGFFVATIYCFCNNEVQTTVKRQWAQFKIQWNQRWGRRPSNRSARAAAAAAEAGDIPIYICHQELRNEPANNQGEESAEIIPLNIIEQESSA
How it was run: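 COS7 stable hCTR2 clone (RAMP-free); peptide dose-response 15 min 37° C in Tyrode pH 7.4 + 100 µM IBMX + 0.1% casein; lysis 10 min RT; AlphaScreen cAMP; 4PL fit.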

[2] = Solubility assessment (turbidity absorbance at 325 nm); type: physicochemical; details: stock 2 mg/ml diluted 1:1, ambient temperature (typically 25°C), n=1; for Solubility, Acetate buffer pH 4: 100 mM acetate buffer pH 4.0; for Solubility, Acetate buffer pH 5: 100 mM acetate buffer pH 5.0; for Solubility, Histidine buffer pH 6: 100 mM histidine buffer pH 6.0; for Solubility, Histidine buffer pH 7: 100 mM histidine buffer pH 7.0; for Solubility, Phosphate buffer pH 6: 100 mM phosphate buffer pH 6.0; for Solubility, Phosphate buffer pH 7: 100 mM phosphate buffer pH 7.0; for Solubility, Phosphate buffer pH 7.5: 100 mM phosphate buffer pH7.5
How it was run: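 Peptide stock (2 mg/ml, water pH 2.5) diluted 1:1 into 100 mM acetate (pH 4.0, 5.0), histidine (pH 6.0, 7.0) or phosphate (pH 6.0–7.5) buffer; absorbance at 325 nm read at about 25°C, n=1. A325 ≤ 0.02 taken as solubility ≥ 1 mg/ml.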

[3] = cAMP induction in COS7 cells expressing hCTR2, average of a minimum of 3 determinations, read-out: hCTR2 EC50

| SMILES | EC50 [1] [pM] | Solubility, Acetate buffer pH 4 [2] | Solubility, Acetate buffer pH 5 [2] | Solubility, Histidine buffer pH 6 [2] | Solubility, Histidine buffer pH 7 [2] | Solubility, Phosphate buffer pH 6 [2] | Solubility, Phosphate buffer pH 7 [2] | Solubility, Phosphate buffer pH 7.5 [2] | EC50 [1, 3] [pM] |
| --- | --- | --- | --- | --- | --- | --- | --- | --- | --- |
| CC[C@H](C)[C@@H](C(=O)N[C@@H](CC(C)C)C(=O)N[C@@H](CO)C(=O)N[C@@H](CO)C(=O)N[C@H](C(=O)N[C@@H](CC(N)=O)C(=O)N[C@H](C(=O)NCC(=O)N[C@@H](CO)C(=O)N[C@@H](CC(N)=O)C(=O)N[C@H](C(=O)N1CCC[C@H]1C(N)=O)[C@@H](C)O)C(C)C)[C@@H](C)O)N(C)C(=O)[C@H](C)NC(=O)CN(C)C(=O)[C@H](Cc1ccccc1)NC(=O)[C@H](CC(N)=O)NC(=O)[C@H](CC(N)=O)NC(=O)[C@H](CO)NC(=O)[C@H](CO)NC(=O)[C@H](Cc1c[nH]cn1)NC(=O)[C@H](CCCNC(=N)N)NC(=O)[C@H](CC(C)C)NC(=O)[C@H](Cc1ccccc1)NC(=O)[C@H](CCC(=O)O)NC(=O)[C@H](C)NC(=O)[C@H](CC(C)C)NC(=O)[C@H](CCCNC(=N)N)NC(=O)[C@H](CCC(N)=O)NC(=O)[C@@H](NC(=O)[C@H](C)NC(=O)[C@@H]1CSSC[C@H](NC(=O)[C@H](CCCNC(=N)N)NC(=O)CC[C@H](NC(=O)CCCCCCCCCCCCCCCCCCC(=O)O)C(=O)O)C(=O)N[C@@H](CC(N)=O)C(=O)N[C@@H]([C@@H](C)O)C(=O)N[C@@H](C)C(=O)N[C@@H]([C@@H](C)O)C(=O)N1)[C@@H](C)O [Compound 21, [19CD]-isoGlu-RC()NTATC()ATQRLAEFLRHSSNNF-Gly(Me)-A-Ile(Me)-LSSTNVGSNTP-NH2] ({C20 diacid-γGlu}-RCNTATCATQRLAEFLRHSSNNF[Sar]A[NMeI]LSSTNVGSNTP-NH2; disulfide 2-7) | 380 | SS (SS indicates solubility ≥ 1mg/ml) | SS (SS indicates solubility ≥ 1mg/ml) | SS (SS indicates solubility ≥ 1mg/ml) | SS (SS indicates solubility ≥ 1mg/ml) | SS (SS indicates solubility ≥ 1mg/ml) | SS (SS indicates solubility ≥ 1mg/ml) | SS (SS indicates solubility ≥ 1mg/ml) | – |
| CC[C@H](C)[C@@H](C(=O)N[C@@H](CC(C)C)C(=O)N[C@@H](CO)C(=O)N[C@@H](CO)C(=O)N[C@H](C(=O)N[C@@H](CC(N)=O)C(=O)N[C@H](C(=O)NCC(=O)N[C@@H](CO)C(=O)N[C@@H](CC(N)=O)C(=O)N[C@H](C(=O)N1CCC[C@H]1C(N)=O)[C@@H](C)O)C(C)C)[C@@H](C)O)N(C)C(=O)CN(C)C(=O)[C@H](Cc1ccccc1)NC(=O)[C@H](CC(N)=O)NC(=O)[C@H](CC(N)=O)NC(=O)[C@H](CO)NC(=O)[C@H](CO)NC(=O)[C@H](Cc1c[nH]cn1)NC(=O)[C@H](CCCNC(=N)N)NC(=O)[C@H](CC(C)C)NC(=O)[C@H](Cc1ccccc1)NC(=O)[C@H](CCC(=O)O)NC(=O)[C@H](C)NC(=O)[C@H](CC(C)C)NC(=O)[C@H](CCCNC(=N)N)NC(=O)[C@H](CCC(N)=O)NC(=O)[C@@H](NC(=O)[C@H](C)NC(=O)[C@@H]1CSSC[C@H](NC(=O)[C@H](CCCNC(=N)N)NC(=O)CC[C@H](NC(=O)CCCCCCCCCCCCCCCCCCC(=O)O)C(=O)O)C(=O)N[C@@H](CC(N)=O)C(=O)N[C@@H]([C@@H](C)O)C(=O)N[C@@H](C)C(=O)N[C@@H]([C@@H](C)O)C(=O)N1)[C@@H](C)O [Compound 22, [19CD]-isoGlu-RC()NTATC()ATQRLAEFLRHSSNNF-Gly(Me)-Ile(Me)-LSSTNVGSNTP-NH2] ({C20 diacid-γGlu}-RCNTATCATQRLAEFLRHSSNNF[Sar][NMeI]LSSTNVGSNTP-NH2; disulfide 2-7) | – | SS (SS indicates solubility ≥ 1mg/ml) | SS (SS indicates solubility ≥ 1mg/ml) | SS (SS indicates solubility ≥ 1mg/ml) | SS (SS indicates solubility ≥ 1mg/ml) | SS (SS indicates solubility ≥ 1mg/ml) | SS (SS indicates solubility ≥ 1mg/ml) | SS (SS indicates solubility ≥ 1mg/ml) | 310 |
| CC[C@H](C)[C@@H](C(=O)N[C@@H](CC(C)C)C(=O)N[C@H](CO)C(=O)N[C@@H](CO)C(=O)N[C@H](C(=O)N[C@@H](CC(N)=O)C(=O)N[C@H](C(=O)NCC(=O)N[C@@H](CO)C(=O)N[C@@H](CC(N)=O)C(=O)N[C@H](C(=O)N1CCC[C@H]1C(N)=O)[C@@H](C)O)C(C)C)[C@@H](C)O)N(C)C(=O)CN(C)C(=O)[C@H](Cc1ccccc1)NC(=O)[C@H](CC(N)=O)NC(=O)[C@H](CC(N)=O)NC(=O)[C@H](CO)NC(=O)[C@H](CO)NC(=O)[C@H](Cc1c[nH]cn1)NC(=O)[C@H](Cc1c[nH]cn1)NC(=O)[C@H](CC(C)C)NC(=O)[C@H](Cc1ccccc1)NC(=O)[C@H](CCC(=O)O)NC(=O)[C@H](C)NC(=O)[C@H](CC(C)C)NC(=O)[C@H](CCCNC(=N)N)NC(=O)[C@H](CCC(N)=O)NC(=O)[C@@H](NC(=O)[C@H](C)NC(=O)[C@@H]1CSSC[C@H](NC(=O)[C@H](CCCNC(=N)N)NC(=O)CC[C@H](NC(=O)CCCCCCCCCCCCCCCCCCC(=O)O)C(=O)O)C(=O)N[C@@H](CC(N)=O)C(=O)N[C@@H]([C@@H](C)O)C(=O)N[C@@H](C)C(=O)N[C@@H]([C@@H](C)O)C(=O)N1)[C@@H](C)O [Compound 24, [19CD]-isoGlu-RC()NTATC()ATQRLAEFLHHSSNNF-Gly(Me)-Ile(Me)-L-DSer-STNVGSNTP-NH2] ({C20 diacid-γGlu}-RCNTATCATQRLAEFLHHSSNNF[Sar][NMeI]L[dS]STNVGSNTP-NH2; disulfide 2-7) | – | SS (SS indicates solubility ≥ 1mg/ml) | SS (SS indicates solubility ≥ 1mg/ml) | SS (SS indicates solubility ≥ 1mg/ml) | SS (SS indicates solubility ≥ 1mg/ml) | SS (SS indicates solubility ≥ 1mg/ml) | SS (SS indicates solubility ≥ 1mg/ml) | SS (SS indicates solubility ≥ 1mg/ml) | 130 |
| CC[C@H](C)[C@@H](C(=O)N[C@@H](CC(C)C)C(=O)N[C@@H](CO)C(=O)N[C@H](C(=O)N[C@@H](CC(N)=O)C(=O)N[C@H](C(=O)NCC(=O)N[C@@H](CO)C(=O)N[C@@H](CC(N)=O)C(=O)N[C@H](C(=O)N1CCC[C@H]1C(N)=O)[C@@H](C)O)C(C)C)[C@@H](C)O)N(C)C(=O)[C@H](C)NC(=O)CN(C)C(=O)[C@H](Cc1ccccc1)NC(=O)[C@H](CC(N)=O)NC(=O)[C@H](CC(N)=O)NC(=O)[C@H](CO)NC(=O)[C@H](CO)NC(=O)[C@H](Cc1c[nH]cn1)NC(=O)[C@H](Cc1c[nH]cn1)NC(=O)[C@H](CC(C)C)NC(=O)[C@H](Cc1ccccc1)NC(=O)[C@H](CCC(=O)O)NC(=O)[C@H](C)NC(=O)[C@H](CC(C)C)NC(=O)[C@H](CCCNC(=N)N)NC(=O)[C@H](CCC(N)=O)NC(=O)[C@@H](NC(=O)[C@H](C)NC(=O)[C@@H]1CSSC[C@H](NC(=O)[C@H](CCCNC(=N)N)NC(=O)CC[C@H](NC(=O)CCCCCCCCCCCCCCCCCCC(=O)O)C(=O)O)C(=O)N[C@@H](CC(N)=O)C(=O)N[C@@H]([C@@H](C)O)C(=O)N[C@@H](C)C(=O)N[C@@H]([C@@H](C)O)C(=O)N1)[C@@H](C)O [Compound 25, [19CD]-isoGlu-RC()NTATC()ATQRLAEFLHHSSNNF-Gly(Me)-A-Ile(Me)-LSTNVGSNTP-NH2] ({C20 diacid-γGlu}-RCNTATCATQRLAEFLHHSSNNF[Sar]A[NMeI]LSTNVGSNTP-NH2; disulfide 2-7) | 100 | SS (SS indicates solubility ≥ 1mg/ml) | SS (SS indicates solubility ≥ 1mg/ml) | SS (SS indicates solubility ≥ 1mg/ml) | SS (SS indicates solubility ≥ 1mg/ml) | SS (SS indicates solubility ≥ 1mg/ml) | SS (SS indicates solubility ≥ 1mg/ml) | SS (SS indicates solubility ≥ 1mg/ml) | – |
